Experimental data published in patent publication US7728043B2, “Methods for treatment of beta-amyloid protein-induced ocular disease” (priority 1999, dated 2010).
Entries after “also recorded” stand apart in the source; their conditions may differ.

How the values were obtained:
[1] = tested on: PC12 cells; experiment: MTT reduction assay, βA peptide-induced toxicity, PC12 cells; type: cell-based, rat
Experimental: (§1) The degree of βA insult was measured by 3-[4,5-dimethylthiazol-2-yl]-2,5-diphenyltetrazolium bromide (MTT) reduction assay. […] The detection of cell growth or cell death can be determined by observing the conversion of MTT to the colored product, MTT formazan, the concentration of which can be measured […] at 550 nm.
(§2) Cells were incubated in MTT solution (5 mg/ml) at 37° C. for 2 hours. During this time, cells were observed under a microscope every 15 min. Cells were incubated in Lysing buffer (100 μl) overnight at 37° C. Colorimetric determination of MTT reduction was made at 550 nm.
(§3) PC12 rat pheochromocytoma and IMR32 human neuroblastoma cells were obtained from the American Type Culture Collection (ATCC). HUVEC normal umbilical human vein endothelial cells were obtained from Clonetics (San Diego, Calif.). Cells were routinely cultured on a tissue culture plate (Corning, N.Y., N.Y.). PC12 cells were grown in high glucose Dulbecco's Modified Eagle Medium (DMEM), 10% horse serum, 5% fetal calf serum, and 1% penicillin/streptomycin. IMR32 cells were grown in 90% DMEM and 10% fetal calf serum with 1% penicillin/streptomycin. HUVEC cells were grown in EGM-2 Bullet Kit (Clonetics, San Diego, Calif.).
PC12 cells were cultured routinely on polystyrene-coated Corning tissue culture plates. […] The 96-well plates were coated with rat tail collagen (Boehringer Mannheim) in order to promote uniform PC12 cell attachment and growth.

[2] = tested on: IMR32 cells; experiment: MTT reduction assay, βA peptide-induced toxicity, IMR32 cells; type: cell-based, human
Experimental: as §1, §2, §3

[3] = tested on: HUVEC cells; experiment: MTT reduction assay, βA peptide-induced toxicity, HUVEC cells; type: cell-based, human; conditions: Table 1, turmeric-derived natural product compounds
Experimental: as §1, §2, §3

[4] = Antioxidant assay, scavenging of DPPH free radicals; conditions: for Antioxidant activity (DPPH free radical scavenging), in words: optical density change of DPPH radicals at 515 nm
Experimental: Kim et al., Neurosci Lett 303, 57 (2001) and Barik et al., Free Radic Biol Med 39, 811 (2005).
Using an antioxidant assay, the antioxidant potency of the compounds of the invention was evaluated. 1,1-Diphenyl-2-picrylhydrazyl (DPPH) is known to generate stable free radicals in aqueous and ethanolic solutions. The ability of the compounds of the invention to scavenge these free radicals was measured by observing the optical density change of DPPH radicals at 515 nm. Kim et al., Neurosci Lett 303, 57 (2001) and Barik et al., Free Radic Biol Med 39, 811 (2005).
The samples were prepared in various concentrations (200, 20, 2.0, and 0.2 μg/ml) by serial dilution of a stock solution (5 mg/ml) and were tested by the following procedure. Reaction mixtures containing test compounds (dissolved in DMSO) and 300 μM DPPH ethanolic solution in 96-well microtiter plates were incubated at 37° C. for 30 min. and absorbance was measured at 515 nm. Percent inhibition by sample treatment was determined by comparison with a DMSO-treated […] control group. IC50 values were determined from percent inhibition by sample. IC50 values denote the concentration of the tested compound that was required to scavenge 50% of the DPPH free radicals.

[5] = tested on: primary cortical rat neuronal cells; experiment: Protection of primary cortical neuronal cells against βA peptide (1-42) insult; type: cell-based; conditions: compound at 5 μg/ml; βA peptide (1-42) 10 μg/ml
Experimental: as §2
Primary cortical rat neuronal cells were obtained in the following manner. Dissociated primary neuronal cell cultures were established from 18-day-old Sprague-Dawley rat fetuses. The pups were delivered by caesarean section while the dam was anesthetized with ether. Hippocampal tissue from embryonic day 18 Sprague-Dawley rat pups was dissected and then rinsed in cold Ca^2+/Mg^2+-free Hank's balanced salt solution supplemented with 20 mM HEPES, 4.2 mM sodium bicarbonate, 1 mM pyruvate, and 3 mg/ml bovine serum albumin (BSA). Following gentle trituration of the tissue with a constricted pipette in cold buffer, two volumes of 10% fetal bovine serum (FBS) in DMEM were added to the suspension. After the suspension settled for 2 minutes, the supernatant was collected and centrifuged for 2 min. at 200×g. The cell pellets were resuspended in serum-free DMEM (pH 7.3), supplemented with 2.4 mg/ml BSA and a modification of Brewer's […] defined components (with 250 nM vitamin B12 and without catalase, glutathione, and superoxide dismutase). Cells were plated at a density of 15,000 cells/cm^2 and grown at 37° C. After 24 hours of incubation to allow cell attachment, the serum-containing medium was replaced by defined medium with DMEM/F12 containing bovine transferrin (100 μg/ml), bovine insulin (5 μg/ml), putrescine (0.1 mM), progesterone (10 nM), sodium selenite (30 nM), sodium pyruvate (1 mM), and potassium bicarbonate (15 mM). Cells maintained for extended periods of time were fed twice a week by replacing ⅓ of the medium with fresh medium.

[6] = tested on: cells treated with βA peptide; experiment: Protection of cells from βA peptide insult, statements in words (MTT assay, cells not singled out); type: cell-based; conditions: for Protection of cells from βA peptide-induced toxicity, in words: MTT reduction assay, PC12, IMR32, HUVEC cells where named in the sentence; for Microscopic analysis of βA peptide treated cells (MTT formazan granules in the cytosole): synthesized curcuminoid compounds, compared with positive and negative control
Experimental: as §1, §2

[7] = Partition coefficient between water and octane alcohol (log P); type: physicochemical
Experimental: According to this example, the ability of the compounds of the invention to pass through the blood brain barrier was measured. The ability of compounds to cross the blood brain barrier is represented by the log of the partition coefficient (P) of a molecule of the invention between water and octane alcohol. […] Accordingly, the octane alcohol fraction contained more than 1000 times as much of the compounds as the water fraction. […] See Hau et al., Regul Toxicol Pharmacol 35, 273 (2002) and Salminen et al., J Pharm Biomed Anal 15, 469 (1997).

[8] = Table 1, turmeric-derived natural product compounds
[9] = Table 1, turmeric-derived natural product compounds, concentration for 50% cell viability
[10] = Table 1, turmeric-derived natural product compounds, scavenging 50% of DPPH free radicals
[11] = Table 2, synthesized curcuminoids
[12] = Table 2, synthesized curcuminoids, DPPH

| SMILES | Anti-βA peptide(1-42) ED50 PC12 [1, 8] | Anti-βA peptide(25-35) ED50 PC12 [1, 9] | Anti-βA peptide(25-35) ED50 IMR32 [2, 8] | Anti-βA peptide(1-42) ED50 HUVEC [3] | Anti-βA peptide(25-35) ED50 HUVEC [3] | Antioxidant IC50 [4, 10] | Antioxidant activity (DPPH free radical scavenging), in words [4] | Protection of primary cortical neuronal cells against βA peptide (1-42) insult [5] | Protection of cells from βA peptide-induced toxicity, in words [6] | Anti-βA peptide(1-42) ED50 PC12 [1, 11] | Anti-βA peptide(25-35) ED50 PC12 [1, 11] | Anti-βA peptide(1-42) ED50 IMR32 [2, 11] | Anti-βA peptide(25-35) ED50 IMR32 [2, 11] | Antioxidant IC50 [4, 12] | logP [7] | Microscopic analysis of βA peptide treated cells (MTT formazan granules in the cytosole) [6] |
| --- | --- | --- | --- | --- | --- | --- | --- | --- | --- | --- | --- | --- | --- | --- | --- | --- |
| COc1cc(C=CC(=O)CC(=O)C=Cc2ccc(O)cc2)ccc1O [Compound 2, 1-(4-hydroxy-3-methoxyphenyl)-7-(4-hydroxyphenyl)-1,6-heptadiene-3,5-dione] | 5.0 µg/mL | 4.0 µg/mL | 4.0 µg/mL | 5.0 µg/mL | 4.5 µg/mL | 36.2 µg/mL | strong antioxidant activity | protected | protected | – | – | – | – | – | – | – |
| O=C(C=Cc1ccc(O)cc1)CC(=O)C=Cc1ccc(O)cc1 [Compound 3, 1,7-bis(4-hydroxyphenyl)-1,6-heptadiene-3,5-dione] | 3.5 µg/mL | 2.0 µg/mL | 2.5 µg/mL | 2.0 µg/mL | 2.4 µg/mL | >200 µg/mL | significant antioxidant activity | protected | protected | 4.5 µg/mL | 3.0 µg/mL | 3.5 µg/mL | 3.0 µg/mL | 32.6 µg/mL | 3.1 | effectively protect |
| O=C(C=Cc1ccc(O)cc1)CC(=O)CCc1ccc(O)cc1 [Compound 4, 1,7-bis(4-hydroxyphenyl)-1-heptene-3,5-dione] | 1.0 µg/mL | 0.5 µg/mL | 1.2 µg/mL | 1.0 µg/mL | 0.8 µg/mL | >200 µg/mL | – | protected | protected; also recorded: best protection | 1.0 µg/mL | 0.5 µg/mL | 2.0 µg/mL | 1.5 µg/mL | >200 µg/mL | – | effectively protect |
| O=C(C=C(O)C=Cc1ccc(O)c(O)c1)CCc1ccc(O)cc1 [Compound 5] | 3.0 µg/mL | 2.5 µg/mL | 1.5 µg/mL | 1.5 µg/mL | 2.0 µg/mL | >200 µg/mL | – | protected | protected | – | – | – | – | – | – | – |
| COc1cc(/C=C/C(=O)COC(=O)/C=C/c2ccc(O)c(OC)c2)ccc1O [Compound 6, 4″-(3′″-methoxy-4′″-hydroxyphenyl)-2″-oxo-3″-enebutanyl 3-(3′-methoxy-4′-hydroxyphenyl)propenoate] | 2.0 µg/mL | 1.0 µg/mL | 1.0 µg/mL | 1.0 µg/mL | 1.5 µg/mL | >200 µg/mL | – | protected | protected | – | – | – | – | – | – | – |
